Read-outs that look alike come from different tables or passages of the source.
Key:
[1] = target: T1, N-type calcium channel α1B (Cav2.2), β3 and α2δ subunits (Homo sapiens, UniProt Q00975); assay: Functional assay, antagonism of N-type calcium channel (FDSS calcium mobilization response to KCl depolarization); type: cell-based; details: for IC50: HEK stable cell line, 50 mM KCl depolarization, six-point concentration-response; for inhibition at 0.33 µM: 0.33 μM compound, FDSS, 50 mM KCl
T1 construct: expressed in transfected cells
Description: A stable cell line (HEK parent) co-expressing the α1B (Cav2.2), β3 and α2δ subunits of the N-type calcium channel subunits was used. These cells were routinely grown as monolayers in low glucose-containing Dulbecco's Modified Eagle Medium supplemented with 10% FBS, 2 mM L-glutamine, 100 I.U./mL penicillin, 100 μg/mL streptomycin, 400 μg/mL G418 and 200 μg/mL Zeocin (split ratio=1:5). Cells were maintained in 5% CO2 at 37° C. Compounds of Formula (I) were prepared as 10 mM stocks in DMSO from neat compound, if available. Otherwise, the 5 or 10 mM DMSO stock solutions provided in-house were used.
Calcium mobilization responses to KCl depolarization were evaluated by measuring the intensity of calcium-mediated fluorescent signal in the presence of BD Calcium Assay Dye (BD Biosciences, Franklin Lakes, N.J., U.S.A.), utilizing a Functional Drug Screening System (FDSS) by Hamamatsu Corporation (Bridgewater, N.J. U.S.A.).
Twenty-four hr prior to assay, cells were seeded in clear-base poly-D-lysine-coated 384-well plates (BD Biosciences) at a density of 5,000 cells per well in culture medium and grown overnight in 5% CO2 at 37° C. On the day of assay, growth media were removed, and cells were loaded with BD calcium assay dye (BD Biosciences) for 35 min at 37° C. under 5% CO2 and then for 25 min at room temp. Utilizing the FDSS, cells were exposed to representative compounds of Formula (I) at varying concentrations, and intracellular calcium was measured for 5 min prior to the addition of 50 mM KCl for an additional 3 min of measurement.
IC50 values for representative compounds of Formula (I) were determined from six-point concentration-response experiments and represent the concentration of said compound required to inhibit 50% of the maximal response. Maximal fluorescence intensity (FI) achieved upon addition of 50 mM KCl was exported from the FDSS software and further analyzed using GraphPad Prism 3.02 (Graph Pad Software Inc., San Diego, Calif., U.S.A.). Data were normalized to the maximum average counts from quadruplicate wells for each condition in the presence of 50 mM KCl and to the minimum average counts in the presence of buffer. Theoretical curves were generated using nonlinear regression curve-fitting analysis of either sigmoidal concentration-response or sigmoidal concentration-response (variable slope), and the IC50 values with the best-fit curve determined by GraphPad Prism were reported.

[2] = target: T2, N-type calcium channel (Homo sapiens, UniProt Q00975); assay: Automated electrophysiology assay (QPatch-HT whole-cell patch clamp); type: cell-based
T2 construct: expressed in transfected cells
Description: Cells were grown in T175 flasks to 50%-90% confluence. At the time of use, cells were enzymatically treated with Detachin (Genlantis, San Diego, Calif. USA), centrifuged, rinsed, and resuspended in 293 SFM II media (Life Technologies, Grand Island, N.Y. U.S.A.) supplemented with 25 mM HEPES (Sigma-Aldrich, St. Louis, Mo. U.S.A.) to a concentration of 2-3×10^6 cells/mL. Cells were added to the automated cell preparation station on the QPatch-HT (Sophion Biosciences, North Brunswick, N.J. U.S.A.), and following a 10- to 30-min recovery period with gentle stirring, the assay protocol was initiated. During the automated cell preparation, cells were collected, centrifuged and resuspended in an extracellular (EC) solution containing 132 mM NaCl, 1.8 mM CaCl2, 5.4 mM KCl, 0.8 mM MgCl2, 10 mM glucose, and 10 mM HEPES (pH=7.4), adjusted with sucrose to approximately 315 m0sm. The QPlate was primed with an intracellular solution containing 135 mM CsCl, 10 mM EGTA, 4 MgATP, 0.3 NaGTP, and 20 mM HEPES (pH=7.2), adjusted to approximately 290 m0sm with deionized water and the EC solution. Cells were added to the prepared QPlate wells by robotic pipettes of the QPatch-HT.
For cells determined to be in stable whole-cell patch clamp, the EC solution was replaced with a barium (Ba)/triethylammonium (TEA) solution containing 140 mM TEA-Cl, 10 mM BaCl2, 0.8 mM MgCl2, 10 mM glucose and 10 mM HEPES (pH=7.4). High (40 mM) BaCl2 concentrations were made with adjustments to TEA-C1 (90 mM) to maintain the osmolarity. From a resting potential of −80 mV, a train of depolarizing pulses (15 pulses at 5 Hz, +20 mV) was delivered to the cell once every 30 sec for eight trains (4 min total), and the resulting currents were measured during a control period (no compound). This protocol was repeated for each subsequent addition of control buffer with or without compound (three periods total, each with four trains). The current generated in the 1st and 15th pulses of the last train of each period in the presence of each drug concentration was normalized to the current generated during the control period at the respective pulses (representing low- and high-frequency stimulation, respectively). Data from both the second and third drug application periods were analyzed for each cell. A final addition of Ba/TEA solution containing 60-100 μM CdCl2 was made to block all N-type current and to “zero” the currents for each cell. All buffer/compound additions were made using a “spitting” feature of the QPatch-HT, which added three repetitions of 5 μL solution at the beginning of each recording period.
To examine closed-state inactivation, cells were subjected to a channel-activating 50-msec depolarizing step pulse from −80 to +10 mV, followed by a 5-sec nonactivating step to voltages ranging from −130 to −60 mV in 10 mV increments and then a 50-ms step from −80 to +10 mV to assess the remaining current. Currents from the activating voltage pulse were normalized to the peak value of the test pulse following the −130 mV step and fit to a Boltzman equation to obtain the V1/2. Roscovitine (Sigma-Aldrich) was prepared as a 100 mM stock in dimethyl sulfoxide and diluted to the indicated working concentrations. […]. Compounds of Formula (I) were diluted first into dimethyl sulfoxide and then into 10% pluronic F-127 in water (Life Technologies), sonicated for 1 min and diluted into EC buffer. Vehicle controls were run in parallel in all experiments.
Unless otherwise indicated, statistics for comparing among electrophysiological results utilized a one-way analysis of variance with Fisher's least squares determination test for pair-wise comparison.

[3] = high frequency (15th pulse of train, 5 Hz), read-out: QPatch at High Frequency % Inhibition
[4] = low frequency (1st pulse of train), read-out: QPatch at Low Frequency % Inhibition
[5] = 1 μM, high frequency (15th pulse of train, 5 Hz), read-out: QPatch at High Frequency % Inhibition
[6] = 1 μM, low frequency (1st pulse of train), read-out: QPatch at Low Frequency % Inhibition

T2 sequence (Q00975 whole entry): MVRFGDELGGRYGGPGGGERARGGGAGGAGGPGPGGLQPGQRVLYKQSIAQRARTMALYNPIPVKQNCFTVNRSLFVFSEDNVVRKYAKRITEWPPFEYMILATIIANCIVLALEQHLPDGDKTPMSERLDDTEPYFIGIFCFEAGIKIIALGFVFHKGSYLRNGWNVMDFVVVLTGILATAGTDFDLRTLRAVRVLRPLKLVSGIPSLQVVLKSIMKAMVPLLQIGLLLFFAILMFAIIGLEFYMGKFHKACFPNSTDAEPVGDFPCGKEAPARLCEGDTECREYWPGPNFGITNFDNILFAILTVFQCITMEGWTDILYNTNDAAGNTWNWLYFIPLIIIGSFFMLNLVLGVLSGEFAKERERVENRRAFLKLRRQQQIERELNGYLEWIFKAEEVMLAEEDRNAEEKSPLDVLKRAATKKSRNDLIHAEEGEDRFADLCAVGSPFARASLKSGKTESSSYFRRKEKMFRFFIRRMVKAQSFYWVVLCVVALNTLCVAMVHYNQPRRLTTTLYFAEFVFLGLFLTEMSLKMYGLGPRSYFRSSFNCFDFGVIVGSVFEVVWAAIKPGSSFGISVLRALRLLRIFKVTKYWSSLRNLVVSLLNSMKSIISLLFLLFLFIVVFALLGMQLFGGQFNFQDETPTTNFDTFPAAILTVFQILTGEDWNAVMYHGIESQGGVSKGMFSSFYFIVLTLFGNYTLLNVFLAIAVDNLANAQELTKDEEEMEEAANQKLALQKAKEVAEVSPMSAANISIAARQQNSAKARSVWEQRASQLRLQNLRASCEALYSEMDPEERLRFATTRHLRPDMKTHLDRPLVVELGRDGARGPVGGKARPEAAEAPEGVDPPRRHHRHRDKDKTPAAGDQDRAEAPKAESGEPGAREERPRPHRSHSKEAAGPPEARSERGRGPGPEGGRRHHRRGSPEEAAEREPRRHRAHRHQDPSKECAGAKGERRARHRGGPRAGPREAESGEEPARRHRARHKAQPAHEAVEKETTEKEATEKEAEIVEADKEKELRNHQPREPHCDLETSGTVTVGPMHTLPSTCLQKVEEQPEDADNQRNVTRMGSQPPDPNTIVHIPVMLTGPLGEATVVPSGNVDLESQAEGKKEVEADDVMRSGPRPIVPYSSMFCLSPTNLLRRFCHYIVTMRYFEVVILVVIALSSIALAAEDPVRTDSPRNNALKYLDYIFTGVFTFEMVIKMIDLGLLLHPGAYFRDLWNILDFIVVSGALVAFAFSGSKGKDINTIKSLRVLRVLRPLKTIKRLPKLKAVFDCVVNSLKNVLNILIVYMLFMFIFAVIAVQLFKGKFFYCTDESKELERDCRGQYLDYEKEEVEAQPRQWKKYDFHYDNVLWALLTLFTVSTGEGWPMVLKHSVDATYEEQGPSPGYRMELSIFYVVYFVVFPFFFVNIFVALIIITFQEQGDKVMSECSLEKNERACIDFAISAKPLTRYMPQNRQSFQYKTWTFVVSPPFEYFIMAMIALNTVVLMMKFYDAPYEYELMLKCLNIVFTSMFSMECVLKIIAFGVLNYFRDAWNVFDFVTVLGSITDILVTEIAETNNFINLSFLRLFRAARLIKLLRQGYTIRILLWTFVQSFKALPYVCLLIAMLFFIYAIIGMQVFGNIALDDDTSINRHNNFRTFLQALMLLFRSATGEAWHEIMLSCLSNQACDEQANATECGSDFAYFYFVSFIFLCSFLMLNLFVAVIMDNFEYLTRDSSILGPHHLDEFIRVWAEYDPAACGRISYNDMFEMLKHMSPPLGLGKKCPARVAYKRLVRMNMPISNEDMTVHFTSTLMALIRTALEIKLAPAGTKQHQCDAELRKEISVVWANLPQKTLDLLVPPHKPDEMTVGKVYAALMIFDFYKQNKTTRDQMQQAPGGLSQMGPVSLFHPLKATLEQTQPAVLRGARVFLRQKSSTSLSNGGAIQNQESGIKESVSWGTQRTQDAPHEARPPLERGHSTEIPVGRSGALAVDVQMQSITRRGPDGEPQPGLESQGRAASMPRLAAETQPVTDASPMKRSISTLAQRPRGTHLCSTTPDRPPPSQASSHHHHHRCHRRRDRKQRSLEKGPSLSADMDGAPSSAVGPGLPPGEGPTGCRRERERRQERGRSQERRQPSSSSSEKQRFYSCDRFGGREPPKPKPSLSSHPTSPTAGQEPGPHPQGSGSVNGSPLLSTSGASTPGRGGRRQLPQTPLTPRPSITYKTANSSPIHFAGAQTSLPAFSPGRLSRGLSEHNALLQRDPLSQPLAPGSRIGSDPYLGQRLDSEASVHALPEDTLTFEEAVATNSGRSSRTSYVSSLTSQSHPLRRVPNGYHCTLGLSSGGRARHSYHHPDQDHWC
T2 sequence (P54284 whole entry partner): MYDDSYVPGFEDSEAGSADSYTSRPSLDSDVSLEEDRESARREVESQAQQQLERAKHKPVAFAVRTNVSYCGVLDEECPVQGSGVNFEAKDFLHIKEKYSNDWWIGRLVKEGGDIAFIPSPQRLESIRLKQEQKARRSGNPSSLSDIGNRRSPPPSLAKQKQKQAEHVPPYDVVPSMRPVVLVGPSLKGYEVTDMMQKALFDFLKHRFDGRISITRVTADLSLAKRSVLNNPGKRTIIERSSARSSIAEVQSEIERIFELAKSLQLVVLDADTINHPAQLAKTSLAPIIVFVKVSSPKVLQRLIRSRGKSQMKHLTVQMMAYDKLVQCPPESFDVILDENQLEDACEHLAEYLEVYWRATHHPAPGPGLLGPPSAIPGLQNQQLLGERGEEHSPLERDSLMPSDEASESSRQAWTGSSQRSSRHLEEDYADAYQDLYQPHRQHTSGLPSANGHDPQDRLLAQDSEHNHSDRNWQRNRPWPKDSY
T2 sequence (P54289 25-956 partner limits assumed): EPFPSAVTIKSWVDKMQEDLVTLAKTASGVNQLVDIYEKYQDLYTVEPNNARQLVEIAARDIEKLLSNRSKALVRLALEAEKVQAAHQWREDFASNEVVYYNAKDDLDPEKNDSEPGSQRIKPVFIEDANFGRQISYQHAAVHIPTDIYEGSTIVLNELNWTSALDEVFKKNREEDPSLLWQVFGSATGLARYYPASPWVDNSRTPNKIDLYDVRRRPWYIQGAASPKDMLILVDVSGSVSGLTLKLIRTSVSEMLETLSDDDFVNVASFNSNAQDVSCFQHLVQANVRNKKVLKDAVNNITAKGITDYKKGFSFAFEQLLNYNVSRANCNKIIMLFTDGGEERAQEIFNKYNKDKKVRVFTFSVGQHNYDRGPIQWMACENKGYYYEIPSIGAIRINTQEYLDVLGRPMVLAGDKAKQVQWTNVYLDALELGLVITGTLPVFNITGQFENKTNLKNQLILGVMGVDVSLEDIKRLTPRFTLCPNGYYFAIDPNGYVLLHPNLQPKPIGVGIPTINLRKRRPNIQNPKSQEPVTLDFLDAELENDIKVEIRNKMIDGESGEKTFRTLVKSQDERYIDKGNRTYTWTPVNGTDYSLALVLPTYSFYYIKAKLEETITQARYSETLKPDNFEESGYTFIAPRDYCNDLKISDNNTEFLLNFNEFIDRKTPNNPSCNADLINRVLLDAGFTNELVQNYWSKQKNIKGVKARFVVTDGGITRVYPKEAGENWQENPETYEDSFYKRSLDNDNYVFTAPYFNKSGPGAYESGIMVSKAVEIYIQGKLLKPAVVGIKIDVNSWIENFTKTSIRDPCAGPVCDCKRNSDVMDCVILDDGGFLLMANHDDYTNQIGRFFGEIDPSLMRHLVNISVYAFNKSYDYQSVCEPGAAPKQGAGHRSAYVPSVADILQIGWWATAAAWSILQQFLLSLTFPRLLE
T2 sequence (P54289 957-1103 partner limits assumed): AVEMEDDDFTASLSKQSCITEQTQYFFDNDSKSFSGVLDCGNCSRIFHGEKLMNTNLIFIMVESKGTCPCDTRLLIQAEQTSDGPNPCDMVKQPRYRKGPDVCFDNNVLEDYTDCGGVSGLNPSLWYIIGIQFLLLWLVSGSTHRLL
T1 sequence (Q00975 whole entry): as the sequence (Q00975 whole entry) above
T1 sequence (P54284 whole entry partner): as the sequence (P54284 whole entry partner) above
T1 sequence (P54289 25-956 partner limits assumed): as the sequence (P54289 25-956 partner limits assumed) above
T1 sequence (P54289 957-1103 partner limits assumed): as the sequence (P54289 957-1103 partner limits assumed) above

Row | Structure (SMILES) | IC50 [1] | inhibition at 0.25 µM [2, 3] | inhibition at 0.25 µM [2, 4] | inhibition at 0.1 µM [2, 3] | inhibition at 0.1 µM [2, 4] | inhibition at 0.33 µM [1] | further results
1 | COc1ccccc1-n1nc2c(c1-c1ccc(Cl)cc1)CN(S(=O)(=O)C1CC1)C2 [Cpd 32, 3-(4-Chlorophenyl)-5-(cyclopropylsulfonyl)-2-(2-methoxyphenyl)-2,4,5,6-tetrahydropyrrolo[3,4-c]pyrazole] | 21 nM | 64% | 57% |  |  |  | inhibition at 0.03 µM [2, 3]: -5%; inhibition at 0.03 µM [2, 4]: -6%; inhibition at 0.05 µM [2, 3]: 23%; inhibition at 0.05 µM [2, 4]: 10%; inhibition at 1 µM [2, 5]: 83%; inhibition at 1 µM [2, 6]: 74%
2 | COc1ccccc1-n1nc2c(c1-c1ccc(Cl)cc1)CN(C(=O)OC(C)(C)C)C2 [Cpd 28, tert-Butyl 3-(4-chlorophenyl)-2-(2-methoxyphenyl)-2,6-dihydropyrrolo[3,4-c]pyrazole-5(4H)-carboxylate] | 73 nM |  |  |  |  |  | inhibition at 1 µM ([2]; read-out: QPatch at High Frequency % Inhibition): 52%; inhibition at 1 µM ([2]; read-out: QPatch at Low Frequency % Inhibition): 25%
3 | COc1ccccc1-n1nc2c(c1-c1ccc(Cl)cc1)CN(S(=O)(=O)C1CCCC1)C2 [Cpd 40, 3-(4-Chlorophenyl)-5-(cyclopentylsulfonyl)-2-(2-methoxyphenyl)-2,4,5,6-tetrahydropyrrolo[3,4-c]pyrazole] | 12 nM | 69% | 57% |  |  |  | 
4 | COc1ccccc1-n1nc2c(c1-c1ccc(Cl)cc1)CN(S(=O)(=O)CCNS(=O)(=O)N(C)C)C2 [Cpd 46, N′-(2-{[3-(4-Chlorophenyl)-2-(2-methoxyphenyl)-2,6-dihydropyrrolo[3,4-c]pyrazol-5(4H)-yl]sulfonyl}ethyl)-N,N-dimethylsulfamide] | 5 nM |  |  | -6% | -8% |  | 
5 | COc1ccccc1-n1nc2c(c1-c1ccc(Cl)nc1)CN(S(=O)(=O)C(C)C)C2 [Cpd 92, 3-(6-Chloropyridin-3-yl)-2-(2-methoxyphenyl)-5-[(1-methylethyl)sulfonyl]-2,4,5,6-tetrahydropyrrolo[3,4-c]pyrazole] | 16 nM |  |  | 10% | 14% | 86% | 
6 | CS(=O)(=O)N1Cc2nn(-c3ccccc3OC(F)(F)F)c(-c3ccc(Cl)cc3)c2C1 [Cpd 20, 3-(4-Chlorophenyl)-5-(methylsulfonyl)-2-[2-(trifluoromethoxy)phenyl]-2,4,5,6-tetrahydropyrrolo[3,4-c]pyrazole] | 40 nM |  |  |  |  |  | inhibition at 1 µM [2, 5]: 30%; inhibition at 1 µM [2, 6]: 5%
7 | COc1cc(Cl)ccc1-n1nc2c(c1-c1ccc(Cl)cc1)CN(S(=O)(=O)C(C)C)C2 [Cpd 64, 2-(4-Chloro-2-methoxyphenyl)-3-(4-chlorophenyl)-5-[(1-methylethyl)sulfonyl]-2,4,5,6-tetrahydropyrrolo[3,4-c]pyrazole] | 33 nM |  |  | 24% | 12% | 86% | 
8 | COc1ccccc1-n1nc2c(c1-c1ccc(Cl)cc1)CN(S(=O)(=O)N(C)C)C2 [Cpd 33, 3-(4-Chlorophenyl)-2-(2-methoxyphenyl)-N,N-dimethyl-2,6-dihydropyrrolo[3,4-c]pyrazole-5(4H)-sulfonamide] | 9 nM |  |  |  |  |  | inhibition at 1 µM [2, 5]: 78%; inhibition at 1 µM [2, 6]: 74%
9 | COc1ccccc1-n1nc2c(c1-c1ccc(Cl)cc1)CN(S(=O)(=O)C1CCCCC1)C2 [Cpd 37, 3-(4-Chlorophenyl)-5-(cyclohexylsulfonyl)-2-(2-methoxyphenyl)-2,4,5,6-tetrahydropyrrolo[3,4-c]pyrazole] | 16 nM | 73% | 61% |  |  |  | 
10 | COc1cc(Cl)ccc1-n1nc2c(c1-c1ccc(Cl)cc1)CN(S(=O)(=O)N(C)C)C2 [Cpd 65, 2-(4-Chloro-2-methoxyphenyl)-3-(4-chlorophenyl)-N,N-dimethyl-2,6-dihydropyrrolo[3,4-c]pyrazole-5(4H)-sulfonamide] | 150 nM |  |  | 1% | -8% | 74% | 
11 | COc1ccccc1-n1nc2c(c1-c1ccc(Cl)cc1)CN(S(=O)(=O)CC(F)(F)F)C2 [Cpd 36, 3-(4-Chlorophenyl)-2-(2-methoxyphenyl)-5-[(2,2,2-trifluoroethyl)sulfonyl]-2,4,5,6-tetrahydropyrrolo[3,4-c]pyrazole] | 15 nM | 58% | 42% |  |  |  | 
12 | CC(C)S(=O)(=O)N1Cc2nn(-c3cccc4c3OCC4)c(-c3ccc(Cl)cc3)c2C1 [Cpd 84, 3-(4-Chlorophenyl)-2-(2,3-dihydro-1-benzofuran-7-yl)-5-[(1-methylethyl)sulfonyl]-2,4,5,6-tetrahydropyrrolo[3,4-c]pyrazole] | 10 nM |  |  | 7% | -3% | 94% | 
13 | COc1ccccc1-n1nc2c(c1-c1ccc(Cl)cc1)CN(S(=O)(=O)c1c(C)noc1C)C2 [Cpd 87, 3-(4-Chlorophenyl)-5-[(3,5-dimethylisoxazol-4-yl)sulfonyl]-2-(2-methoxyphenyl)-2,4,5,6-tetrahydropyrrolo[3,4-c]pyrazole] | 17 nM |  |  | 49% | 31% | 89% | 
